Test results from patent US20230022157A1 (Achillion Pharmaceuticals, Inc., priority 2018, published 2023).

target: T1, Human Factor D (Homo sapiens, UniProt P00746); assay: Human Factor D Assay; type: biochemical; details: Human Factor D 80 nM, substrate Z-L-Lys-SBzl, assay of Example 3; read-out: IC50 (Stars)
T1 construct: purified from human serum; purchased Complement Technology, Inc; host or cells: human serum (natural protein, not recombinant)
Method in brief: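 Serum-purified human factor D (80 nM final) preincubated 5 min at room temperature with test compound in 50 mM Tris, 1M NaCl, pH 7.5. Z-L-Lys-SBzl substrate and DTNB then added, each at 100 μM final. IC50 from nonlinear regression of reaction rate against compound concentration.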

T1 sequence (P00746 26-253): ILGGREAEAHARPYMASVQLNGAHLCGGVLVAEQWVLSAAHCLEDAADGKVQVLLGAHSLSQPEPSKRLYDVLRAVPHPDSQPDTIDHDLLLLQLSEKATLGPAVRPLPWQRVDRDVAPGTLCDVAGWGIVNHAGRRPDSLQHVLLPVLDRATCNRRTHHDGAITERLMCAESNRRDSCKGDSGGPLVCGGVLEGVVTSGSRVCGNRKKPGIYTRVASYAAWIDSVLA

SMILES	IC50 [nM]
CC(=O)c1nn(CC(=O)N2[C@H](C(=O)NCCc3cc(Cl)ccc3Cl)C[C@@]3(C)C[C@@H]23)c2c(C)cc(-c3cnc(C)nc3)cc12 [Compound 4, (1R,3S,5R)-2-(2-(3-Acetyl-7-methyl-5-(2-methylpyrimidin-5-yl)-1H-indazol-1-yl)acetyl)-N-(2,5-dichlorophenethyl)-5-methyl-2-azabicyclo[3.1.0]hexane-3-carboxamide]	< 1000
CC(=O)c1nn(CC(=O)N2C[C@H](F)C[C@H]2C(=O)Nc2cccc(Br)n2)c2ccc(-c3ccc(C)nn3)cc12 [Compound 35, (2S,4R)-1-(2-(3-Acetyl-5-(6-methylpyridazin-3-yl)-1H-indazol-1-yl)acetyl)-N-(6-bromopyridin-2-yl)-4-fluoropyrrolidine-2-carboxamide]	< 1000

same assay, conditions: Human Factor D 80 nM, substrate Z-L-Lys-SBzl; Table 2; read-out: IC50 (Stars)

IC50 [nM]	SMILES
< 1000	CC(=O)c1nn(CC(=O)N2[C@H](C(=O)Nc3nc(Br)c(F)cc3C)C[C@@]3(C)C[C@@H]23)c2c(C)cc(-c3cnc(C(=O)O)nc3)cc12 [Compound 45, 5-(3-acetyl-1-(2-((1R,3S,5R)-3-((6-bromo-5-fluoro-3-methylpyridin-2-yl)carbamoyl)-5-methyl-2-azabicyclo[3.1.0]hexan-2-yl)-2-oxoethyl)-7-methyl-1H-indazol-5-yl)pyrimidine-2-carboxylic acid]
< 1000	Cc1ncc(-c2cc3c(C(N)=O)nn(CC(=O)N4C(C(=O)Nc5nc(Br)ccc5Cl)CC5(C)CC45)c3c(C)n2)cn1 (stereo not drawn) [Compound 91, 1-{2-[3-(6-Bromo-3-chloro-pyridin-2-ylcarbamoyl)-5-methyl-2-aza-bicyclo[3.1.0]hex-2-yl]-2-oxo-ethyl}-7-methyl-5-(2-methyl-pyrimidin-5-yl)-1H-pyrazolo[3,4-c]pyridine-3-carboxylic acid amide]
< 1000	CC(=O)c1nn(CC(=O)N2[C@H](C(=O)NC(C)CC3CCC3)C[C@@]3(C)C[C@@H]23)c2c(C)cc(-c3cnc(C)nc3)cc12 (stereo partly drawn) [Compound 134]
< 1000	Cc1ncc(-c2cc3c(C(N)=O)nn(CC(=O)N4C[C@H]5C[C@H]5[C@H]4C(=O)Nc4nc(Br)c(F)cc4C)c3c(C)n2)cn1 [Compound 111, 1-{2-[2-(6-Bromo-5-fluoro-3-methyl-pyridin-2-ylcarbamoyl)-3-aza-bicyclo[3.1.0]hex-3-yl]-2-oxo-ethyl}-7-methyl-5-(2-methyl-pyrimidin-5-yl)-1H-pyrazolo[3,4-c]pyridine-3-carboxylic acid amide]
< 1000	CC(=O)c1cn(CC(=O)N2[C@H](C(=O)Nc3nc(C(F)(F)F)ccc3C)C[C@@]3(C)C[C@@H]23)c2cc(F)c(-c3cnc4cc(C)nn4c3)cc12 [Compound 230, (1R,3S,5R)-2-(2-(3-acetyl-6-fluoro-5-(2-methylpyrazolo[1,5-a]pyrimidin-6-yl)-1H-indol-1-yl)acetyl)-5-methyl-N-(3-methyl-6-(trifluoromethyl)pyridin-2-yl)-2-azabicyclo[3.1.0]hexane-3-carboxamide]
< 1000	CC(=O)c1nn(CC(=O)N2[C@H](C(=O)NCC3(C)CCCCC3)C[C@@]3(C)C[C@@H]23)c2c(C)cc(-c3cnc(C)nc3)cc12 [Compound 90, (1R,3S,5R)-2-{2-[3-acetyl-7-methyl-5-(2-methylpyrimidin-5-yl)indazol-1-yl]acetyl}-5-methyl-N-[(1-methylcyclohexyl)methyl]-2-azabicyclo[3.1.0]hexane-3-carboxamide]

SMILES	IC50 [nM]
CC(=O)c1nn(CC(=O)N2[C@H](C(=O)NCc3ccc4c(c3)CCCC4)C[C@@]3(C)C[C@@H]23)c2c(C)cc(-c3cnc(C)nc3)cc12 [Compound 150, (1R,3S,5R)-2-{2-[3-acetyl-7-methyl-5-(2-methylpyrimidin-5-yl)indazol-1-yl]acetyl}-5-methyl-N-(5,6,7,8-tetrahydronaphthalen-2-ylmethyl)-2-azabicyclo[3.1.0]hexane-3-carboxamide]	< 1000
